The term IC50 denotes the concentration that gives 50% inhibition.

The structures appear in SMILES notation. Where a name gives a salt, the structure may show the parent alone. Read-outs that look alike come from different tables or passages of the source.

Experimental findings from patent US5434174A, “Isoxazole derivatives for the treatment of irritable bowel syndrome” (priority 1993, dated 1995) are described below.

Experiment [1] concerns the target T1, muscarinic (M1) receptors (Rattus norvegicus, UniProt P08482).
T1 construct: Cerebral cortical membranes were prepared by differential centrifugation; from tissue; host or cells: rat cerebral cortex membranes
T1 sequence (P08482 1-460): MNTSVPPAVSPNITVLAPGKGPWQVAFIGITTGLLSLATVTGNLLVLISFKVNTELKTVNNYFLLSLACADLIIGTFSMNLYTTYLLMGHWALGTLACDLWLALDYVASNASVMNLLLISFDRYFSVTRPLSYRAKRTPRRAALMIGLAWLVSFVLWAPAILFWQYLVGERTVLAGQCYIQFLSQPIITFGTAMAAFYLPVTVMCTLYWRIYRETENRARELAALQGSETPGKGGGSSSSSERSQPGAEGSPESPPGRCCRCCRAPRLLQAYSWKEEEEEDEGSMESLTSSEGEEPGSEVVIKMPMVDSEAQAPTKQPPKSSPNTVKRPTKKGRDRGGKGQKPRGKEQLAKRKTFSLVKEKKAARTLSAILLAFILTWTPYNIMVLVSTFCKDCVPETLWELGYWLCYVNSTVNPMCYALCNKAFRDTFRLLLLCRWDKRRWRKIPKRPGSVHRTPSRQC
The experiment can be described thus: In vitro [3H]-pirenzepine binding (muscarinic M1, rat cerebral cortical membranes). The arrangement: species or system rat (male Sprague-Dawley). The method, then: In vitro Binding Methods for [3H]-pirenzepine Binding
For in vitro 3H-pirenzepine binding, male Sprague-Dawley (Harlan Sprague Dawley, Indianapolis, Ind.) rats weighing 100-150 gm were sacrificed by decapitation, the brains were quickly removed, and the cerebral cortex was dissected from the brain. Cerebral cortical membranes were prepared by differential centrifugation, washed twice and frozen until used.
The inhibition of binding of 3H-pirenzepine to receptors was determined by adding study drug, 1 nM 3H-pirenzepine (87.0 Ci/mmol, New England Nuclear, Boston, Mass.), and about 100 ug cerebral cortical membranes in 1 ml total volume of 20 mM tris-Cl buffer, pH 7.4, containing 1 mM MnCl2. After incubation for 1 hour at 25° C., the homogenates were filtered through glass filters (Whatman, GF/c) with vacuum, the filters were washed 3 times with 2 ml cold buffer, and placed in scintillation vials containing 10 ml scintillation fluid (Ready Protein +, Beckman, Fullerton, Calif.).
Radioactivity trapped on the filters was determined by liquid, scintillation spectrometry. Nonspecific binding was determined using 1 uM atropine.
(§1) Table II summarizes the effect of typical formula I compounds on muscarinic (M1) receptors.

Another experiment has as its target T2, 5HT1A receptors (Rattus norvegicus, UniProt P19327).
T2 construct: synaptosomal membranes isolated from cerebral cortex; from tissue; host or cells: rat cerebral cortex, crude synaptosomal membranes
T2 sequence (P19327 1-422): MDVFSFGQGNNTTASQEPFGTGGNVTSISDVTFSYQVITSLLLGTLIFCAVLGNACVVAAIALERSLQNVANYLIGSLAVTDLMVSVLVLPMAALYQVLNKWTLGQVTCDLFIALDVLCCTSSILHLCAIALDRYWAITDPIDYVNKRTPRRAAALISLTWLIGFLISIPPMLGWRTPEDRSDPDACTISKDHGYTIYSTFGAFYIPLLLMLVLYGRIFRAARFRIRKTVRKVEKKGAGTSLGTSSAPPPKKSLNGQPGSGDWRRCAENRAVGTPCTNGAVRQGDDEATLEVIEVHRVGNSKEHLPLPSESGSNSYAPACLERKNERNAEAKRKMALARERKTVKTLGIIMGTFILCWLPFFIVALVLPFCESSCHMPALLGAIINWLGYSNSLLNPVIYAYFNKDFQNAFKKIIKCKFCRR
The experiment in a line: In vitro binding to 5HT1A receptors (inhibition of 3H-8-OH-DPAT binding, rat cerebral cortex synaptosomal membranes). The arrangement: species or system rat (male Sprague-Dawley). From the text: Sites specifically labeled by tritiated 8-hydroxy-2-dipropylamino-1,2,3,4-tetrahydronaphthalene (^3 H-8-OH-DPAT) have been identified as 5-HT1A receptors. This general procedure is set forth in Wong et al., J. Neural Transm. 71: 207-218 (1988).
In vitro Binding Methods to 5HT1A Receptors
Male Sprague-Dawley rats (110-150 g) from Harlan Industries (Cumberland, Ind.) were fed Purina Chow ad libitum for at least 3 days before being used in the studies. Rats were killed by decapitation. The brains were rapidly removed, and the cerebral cortices were dissected out at 4° C.
Brain tissues were homogenized in 0.32M sucrose. After centrifugation at 1000× g for 10 min. and then at 17000× g for 20 min., a crude synaptosomal fraction was sedimented. The pellet was suspended in 100 vol. of 50 mM Tris-HCl, pH 7.4, incubated at 37° C. for 10 min., and centrifuged at 50000× g for 10 min. The process was repeated and the final pellet was suspended in ice-chilled 50 mM Tris-HCl, pH 7.4.
Binding of ^3 H-8-OH-DPAT was performed according to the previously described method [Wong et al., J. Neural Transm. 64: 251-269 (1985)]. Briefly, synaptosomal membranes isolated from cerebral cortex were incubated at 37° C. for 10 min. in 2 ml of 50 mM Tris-HCl, pH 7.4; […]; 0.6 mM ascorbic acid; 5 mM CaCl2; 2 nM 3H-8-OH-DPATand 0.1 to 1000 nm of the compound of interest. Binding was terminated by filtering samples under reduced pressure through glass fiber (GFB) filters. The filters were washed twice with 5 ml of ice cold buffer and placed in scintillation vials with 10 ml of PCS (Amersham/Searle) scintillation fluid. Radioactivity was measured with a liquid scintillation spectrometer. Unlabeled 8-OH-DPAT at […] was also included in separate samples to establish non-specific binding. Specific binding of ^3 H-8-OH-DPAT is defined as the difference of radioactivity bound in the absence and in the presence of 10 μM unlabeled 8-OH-DPAT.
(§2) The results in columns 6-8 are indicative of 5-HT1A agonist activity.

A further experiment has as its system brain 5-HIAA levels. The experiment in a line: In vivo lowering of brain 5-HIAA levels. On the set-up: species or system rat (male Sprague-Dawley). As to conditions: Rattus norvegicus, 1 h, minimum effective dose lowering brain 5-HIAA, one hour after treatment, read-out: 5-HIAA MED. The method, then: (§3) In vivo Methods to Show 5HT1A Activity
(§4) Compounds of this invention were also examined for their in vivo effects on brain 5-HIAA and serum corticosterone levels. Male Sprague-Dawley rats weighing 150-200 g were administered subcutaneously or orally with aqueous solutions of the test compound. One hour after treatment, the rats were decapitated and trunk blood collected. The blood was allowed to clot and then was centrifuged to separate the serum. The concentration of corticosterone in the serum was determined by the spectrofluorometric method of Solem, J. H.; Brinck-Johnsen, T., Scand. J. Clin. Invest, [Suppl. 80], 17, 1 (1965). The whole brains from the decapitated rats were quickly removed, frozen on dry ice, and stored at -15° C. 5-HIAA concentrations were measured by liquid chromatography with electrochemical detection as described by Fuller, R. W.; Snoddy, H. D.; Perry, K. W., Life Sci. 40, 1921 (1987).
as §2

In experiment [2] the test system is pylorus ligated rats (gastric acid secretion). Format: in vivo, rat (male Sprague-Dawley). The note with it: 2 h. The procedure: Gastric acid inhibition was determined in pylorus ligated rats following the procedure by Shay (Shay, H., Komarov, A. A. and Greenstein, M: Effects of vagotomy in the rat, Arch. Surg. 59: 210-226, 1949). Male Sprague-Dawley rats weighing approximately 200 gm were starved 24 hours prior to using. Water was provided ad libitrim. Under light ether anesthesia the pylorus was ligated and simultaneously the rats were dosed with the compound either i.p. or s.c. and the rats were allowed to recover from anesthetic. Acid was accumulated for 2 hours. At the end of this period, rats were killed. Stomach contents were removed, measured and titrated to a pH endpoint of 7.0.
as §2

For experiment [3], the system named is rat colon (carbachol-induced contraction). The experiment in a line: Reversal of carbachol-induced hypertone (contraction of rat colon strips in vitro). As to conditions: colonic smooth muscle in vitro, read-out: Blockade of carbachol-induced contraction of rat colon (IC50). On the set-up: species or system rat (male Sprague-Dawley). The procedure: Reversal of Carbachol-Induced Hypertone
Male Spraque-Dawley rats weighing 300-350 gm were starved for 24 hours. The rats were brought to the lab and decapitated and colons were removed immediately. Fecal content was washed and longitudinal strips 4 cm long were placed in organ baths under 1 gm tension using Grass FT03 transducers. Tissues were allowed to equilibrate and were gassed with 95% oxygen and 5% carbon dioxide. The tissues were then contracted with carbachol to produce a tonic response. Then the drug solutions were added to see relaxation. Percent relaxation was calculated from the pre-treatment control period. For many compounds more than one concentration of the drug was tested. In these situations an IC50 was calculated, which is the dose which inhibited carbachol induced response by 50%.
as §1

Experiment [4] deals with serum corticosterone levels. The experiment can be described thus: In vivo elevation of serum corticosterone levels. The note with it: Rattus norvegicus, sc, 1 h, read-out: Corticosterone MED. On the set-up: species or system rat (male Sprague-Dawley). The method, then:
as §3, §4, §2

The mark [5] stands for this setting: inhibition of 3H-pirenzepine binding, rat cerebral cortical membranes, read-out: Radioligand binding data (IC50, nM) M1.
The mark [6] stands for this setting: inhibition of 3H-8-OH-DPAT binding, rat cerebral cortex, read-out: Radioligand binding data (IC50, nM) 5-HT1a.

As to `CCCN(CCC)C1CCc2cccc(-c3cc(-c4ccccc4)no3)c2C1` (centres unmarked) [Example 6, 2-(Di-n-propylamino)-8-(3-phenylisoxazol-5-yl)-1,2,3,4-tetrahydronaphthalene hydrobromide], the 50% inhibitory concentration (IC50) was 750 nM in experiment [1] (setting [5]) and 72 nM on 5HT1A receptors (setting [6]).

As for `CCCN(CCC)[C@H]1CCc2cccc(-c3ccno3)c2C1` [Example 9, S-(-)-8-(isoxazol-5-yl)-2-dipropylamino-1,2,3,4-tetrahydronaphthalene maleate], the IC50 in experiment [1] (setting [5]) was 180 nM; at 5HT1A receptors, 0.2 nM; in experiment [3], 2500 nM. Moreover, the minimal effective dose in the experiment with brain 5-HIAA levels (po) turned out to be 3 mg/kg. Also, the “Gastric Acid Inhibition %” value in experiment [2] was 96.8%.

In the case of `CCCN(CCC)[C@@H]1CCc2cccc(-c3ccno3)c2C1.O=C(O)/C=C\C(=O)O` [Example 10, R-(+)-8-(isoxazol-5-yl)-2-dipropylamino-1,2,3,4-tetrahydronaphthalene maleate], the IC50 is 150 nM in experiment [1], 1.4 nM on 5HT1A receptors (setting [6]) and 9100 nM in experiment [3]. The minimal effective dose with brain 5-HIAA levels (po) stood at 10 mg/kg. The “Gastric Acid Inhibition %” value in experiment [2] stood at 47.1%.

For the compound `CCCN(CCC)C1CCc2cccc(-c3oncc3C)c2C1.O=C(O)/C=C\C(=O)O` (centres unmarked) [Example 3, 2-(Di-n-propylamino)-8-(4-methylisoxazol-5-yl)-1,2,3,4-tetrahydronaphthalene maleate], the minimal effective dose in experiment [4] was 1 mg/kg; in the experiment with brain 5-HIAA levels (po) it was greater than 10 mg/kg; in the experiment with brain 5-HIAA levels (sc), 0.3 mg/kg. In addition, the IC50 in experiment [1] is 190 nM; at 5HT1A receptors (setting [6]), 1.9 nM. In addition, the “Gastric Acid Inhibition %” value in experiment [2] is given as 95.7%.

As to `CCCN(CCC)C1CCc2cccc(O)c2C1` (centres unmarked) [8-OH DPAT, 8-hydroxy-2-dipropylamino-1,2,3,4-tetrahydronaphthalene, reference compound], the IC50 in experiment [1] was 1940 nM; in experiment [3], 29800 nM. For the same compound, the “Gastric Acid Inhibition %” value in experiment [2] came out at 72.4%.

For the compound `CCCN(CCC)C1CCc2cccc(-c3ccno3)c2C1.O=C(O)/C=C\C(=O)O` (centres unmarked) [Example 1, 2-(Di-n-propylamino)-8-(isoxazol-5-yl)-1,2,3,4-tetrahydronaphthalene maleate], the minimal effective dose is 0.3 mg/kg in experiment [4], 3 mg/kg with brain 5-HIAA levels (po) and 0.1 mg/kg with brain 5-HIAA levels (sc). Also, the IC50 at 5HT1A receptors (setting [6]) came to 0.44 nM; in experiment [3], 8100 nM. Also, the “Gastric Acid Inhibition %” value in experiment [2] amounted to 69.6%.

Consider `CCCN(CCC)C1CCc2cccc(-c3cc(Br)no3)c2C1.O=C(O)/C=C\C(=O)O` (centres unmarked) [Example 2, 2-(Di-n-propylamino)-8-(3-bromoisoxazol-5-yl)-1,2,3,4-tetrahydronaphthalene maleate], for which the minimal effective dose (in experiment [4]; with brain 5-HIAA levels (sc)) was greater than 1 mg/kg each time. Moreover, the IC50 in experiment [1] came out at 220 nM; on 5HT1A receptors (setting [6]), 2.5 nM; in experiment [3] it was 4600 nM.

As for `CCCN(CCC)C1CCc2cccc(-c3cc(C)no3)c2C1.O=C(O)/C=C\C(=O)O` (centres unmarked) [Example 5, 2-(Di-n-propylamino)-8-(3-methylisoxazol-5-yl)-1,2,3,4-tetrahydronaphthalene maleate], the minimal effective dose in experiment [4] is greater than 1 mg/kg; in the experiment with brain 5-HIAA levels (sc), 1 mg/kg. Also, the IC50 in experiment [1] was determined as 107 nM; on 5HT1A receptors (setting [6]) it was 1.3 nM. Besides, the “Gastric Acid Inhibition %” value in experiment [2] came to 95.8%.

In the case of `CCCN(CCC)C1CCc2cccc(-c3cc(SC)no3)c2C1` (centres unmarked) [Example 7, 2-(Di-n-propylamino)-8-(3-methylthioisoxazol-5-yl)-1,2,3,4-tetrahydronaphthalene maleate], the minimal effective dose in experiment [4] (minimum effective dose elevating serum corticosterone, one hour after treatment) was greater than 1 mg/kg; in the experiment with brain 5-HIAA levels (sc) it was greater than 1 mg/kg. Besides, the IC50 is 173 nM in experiment [1] (setting [5]) and 1.2 nM on 5HT1A receptors. In addition, in experiment [2], the “Gastric Acid Inhibition %” value is reported as 65.4%.

On to `Br.CCCN(CCC)C1CCc2cccc(-c3oncc3OC)c2C1` (centres unmarked) [Example 8, 2-(Di-n-propylamino)-8-(4-methoxyisoxazol-5-yl)-1,2,3,4-tetrahydronaphthalene hydrobromide], for which the minimal effective dose in experiment [4] was greater than 1 mg/kg; in the experiment on brain 5-HIAA levels (sc), 1 mg/kg. Further, the IC50 in experiment [1] came out at 195 nM; at 5HT1A receptors (setting [6]) it was 1.7 nM. The “Gastric Acid Inhibition %” value in experiment [2] was determined as 46.8%.
